Test results as given in patent US4312867A, “Antibacterial compounds, processes for their preparation and compositions containing them” (Beecham Group Limited, priority 1979, dated 1982).
In brackets after ≈: the same amount, converted by molar mass.

The compounds below were run on Strep dysgalaciae SPD1 (assay: MIC veterinary bacteria (Table 2), serial dilution in agar). Details: diagnostic sensitivity test agar.
Type: cell-based
`C/C(=C\C(=O)OC(C)CCCCCS(N)(=O)=O)CC1OCC(CC2OC2C(C)C(C)O)C(O)C1O` (centres unmarked) [Example 5, 7-Sulphamoylhept-2-yl monate A] was tested, and the MIC was 0.625 µg/mL (≈ 1.2 µM).

These compounds were tested on Strep suis (group D) SPS11 in the same assay as above. Details: diagnostic sensitivity test agar.
Type: cell-based
`C/C(=C\C(=O)OC(C)CCCCCS(N)(=O)=O)CC1OCC(CC2OC2C(C)C(C)O)C(O)C1O` (centres unmarked) [Example 5, 7-Sulphamoylhept-2-yl monate A] gave an MIC of 5 µg/mL (≈ 9.58 µM).

The compounds below were run on M. suipneumoniae Str. 11 (assay: anti-mycoplasmal MIC, Friis broth solidified with agarose (Table 4)). Details: Mesomycoplasma hyopneumoniae, STR.11, 144 h.
Type: cell-based
`C/C(=C\C(=O)OC(C)CCCCCS(N)(=O)=O)CC1OCC(CC2OC2C(C)C(C)O)C(O)C1O` (centres unmarked) [Example 5, 7-Sulphamoylhept-2-yl monate A] was tested, and the MIC was 250 µg/mL (≈ 479 µM).

What follows are compounds tested on S. typhimurium S18 (assay: MIC veterinary bacteria (Table 2), serial dilution in agar). Details: Salmonella enterica, diagnostic sensitivity test agar.
Type: cell-based
Work on `C/C(=C\C(=O)OC(C)CCCCCS(N)(=O)=O)CC1OCC(CC2OC2C(C)C(C)O)C(O)C1O` (centres unmarked) [Example 5, 7-Sulphamoylhept-2-yl monate A] yielded an MIC of over 80 µg/mL.

Each compound was assayed on Erysipelothrix rhusiopathiae NCTC 8163 in the same assay as above. Details: Erysipelothrix rhusiopathiae, NCTC8163.
Type: cell-based
`C/C(=C\C(=O)OC(C)CCCCCS(N)(=O)=O)CC1OCC(CC2OC2C(C)C(C)O)C(O)C1O` (centres unmarked) [Example 5, 7-Sulphamoylhept-2-yl monate A] was tested, and the MIC was 40 µg/mL (≈ 76.7 µM).

The compounds below were run on Pasteurella multocida 1633 (assay: MIC human bacteria (Table 1), serial dilution in nutrient agar). Details: Pasteurella multocida 1633; nutrient agar with 5% chocolated horse blood; read-out: MIC.
Type: cell-based
`C/C(=C\C(=O)OC(C)CCCCCS(N)(=O)=O)CC1OCC(CC2OC2C(C)C(C)O)C(O)C1O` (centres unmarked) [Example 5, 7-Sulphamoylhept-2-yl monate A] showed an MIC of 2.5 µg/mL (≈ 4.79 µM).

The compounds below were run on Staph aureus W2827 in the same assay as above. Details: Staphylococcus aureus, nutrient agar with 5% chocolated horse blood.
Type: cell-based
`C/C(=C\C(=O)OC(C)CCCCCS(N)(=O)=O)CC1OCC(CC2OC2C(C)C(C)O)C(O)C1O` (centres unmarked) [Example 5, 7-Sulphamoylhept-2-yl monate A] was tested, and the MIC was 25 µg/mL (≈ 47.9 µM).

Each compound was assayed on E. coli ESS in the same assay as above. Details: Escherichia coli; E. coli ESS; nutrient agar with 5% chocolated horse blood; read-out: MIC.
Type: cell-based
Compound `C/C(=C\C(=O)OC(C)CCCCCS(N)(=O)=O)CC1OCC(CC2OC2C(C)C(C)O)C(O)C1O` (centres unmarked) [Example 5, 7-Sulphamoylhept-2-yl monate A] has an MIC of 2.5 µg/mL (≈ 4.79 µM).

The compounds below were run on Staph aureus B4 (pen. resis) (assay: MIC veterinary bacteria (Table 2), serial dilution in agar). Details: Staphylococcus aureus; Staph aureus B4 (pen. resis); diagnostic sensitivity test agar; read-out: MIC.
Type: cell-based
In the case of `C/C(=C\C(=O)OC(C)CCCCCS(N)(=O)=O)CC1OCC(CC2OC2C(C)C(C)O)C(O)C1O` (centres unmarked) [Example 5, 7-Sulphamoylhept-2-yl monate A], the MIC is reported as 5 µg/mL (≈ 9.58 µM).

The compounds below were run on Haemophilus influenzae Wy21 (assay: MIC human bacteria (Table 1), serial dilution in nutrient agar). Details: Haemophilus influenzae Wy21; nutrient agar with 5% chocolated horse blood; read-out: MIC.
Type: cell-based
Work on `C/C(=C\C(=O)OC(C)CCCCCS(N)(=O)=O)CC1OCC(CC2OC2C(C)C(C)O)C(O)C1O` (centres unmarked) [Example 5, 7-Sulphamoylhept-2-yl monate A] yielded an MIC of 0.2 µg/mL (≈ 0.383 µM).

The compounds below were run on Sarcina lutea 8340 in the same assay as above. Details: nutrient agar with 5% chocolated horse blood.
Type: cell-based
In the case of `C/C(=C\C(=O)OC(C)CCCCCS(N)(=O)=O)CC1OCC(CC2OC2C(C)C(C)O)C(O)C1O` (centres unmarked) [Example 5, 7-Sulphamoylhept-2-yl monate A], the MIC is reported as “No Growth”.

Each compound was assayed on Haemophilus influenzae Q1 in the same assay as above. Details: Haemophilus influenzae Q1; nutrient agar with 5% chocolated horse blood; read-out: MIC.
Type: cell-based
For `C/C(=C\C(=O)OC(C)CCCCCS(N)(=O)=O)CC1OCC(CC2OC2C(C)C(C)O)C(O)C1O` (centres unmarked) [Example 5, 7-Sulphamoylhept-2-yl monate A], the MIC was 0.2 µg/mL (≈ 0.383 µM).

Each compound was assayed on Strep pyogenes C 2761 in the same assay as above. Details: nutrient agar with 5% chocolated horse blood.
Type: cell-based
In the case of `C/C(=C\C(=O)OC(C)CCCCCS(N)(=O)=O)CC1OCC(CC2OC2C(C)C(C)O)C(O)C1O` (centres unmarked) [Example 5, 7-Sulphamoylhept-2-yl monate A], the MIC is reported as 2.5 µg/mL (≈ 4.79 µM).

The compounds below were run on Bacillus subtilis 6633 in the same assay as above. Details: nutrient agar with 5% chocolated horse blood.
Type: cell-based
`C/C(=C\C(=O)OC(C)CCCCCS(N)(=O)=O)CC1OCC(CC2OC2C(C)C(C)O)C(O)C1O` (centres unmarked) [Example 5, 7-Sulphamoylhept-2-yl monate A] was tested, and the MIC was 2.5 µg/mL (≈ 4.79 µM).

What follows are compounds tested on Strep faecalis I in the same assay as above. Details: nutrient agar with 5% chocolated horse blood.
Type: cell-based
`C/C(=C\C(=O)OC(C)CCCCCS(N)(=O)=O)CC1OCC(CC2OC2C(C)C(C)O)C(O)C1O` (centres unmarked) [Example 5, 7-Sulphamoylhept-2-yl monate A] showed an MIC of over 100 µg/mL.

What follows are compounds tested on Staph aureus Oxford in the same assay as above. Details: Staphylococcus aureus, nutrient agar with 5% chocolated horse blood.
Type: cell-based
Work on `C/C(=C\C(=O)OC(C)CCCCCS(N)(=O)=O)CC1OCC(CC2OC2C(C)C(C)O)C(O)C1O` (centres unmarked) [Example 5, 7-Sulphamoylhept-2-yl monate A] yielded an MIC of 10 µg/mL (≈ 19.2 µM).

Each compound was assayed on Staph aureus Russell in the same assay as above. Details: Staphylococcus aureus, nutrient agar with 5% chocolated horse blood.
Type: cell-based
Work on `C/C(=C\C(=O)OC(C)CCCCCS(N)(=O)=O)CC1OCC(CC2OC2C(C)C(C)O)C(O)C1O` (centres unmarked) [Example 5, 7-Sulphamoylhept-2-yl monate A] yielded an MIC of 10 µg/mL (≈ 19.2 µM).

These compounds were tested on E. coli NCTC 10418 in the same assay as above. Details: Escherichia coli, NCTC10418; E. coli NCTC 10418; nutrient agar with 5% chocolated horse blood; read-out: MIC.
Type: cell-based
In the case of `C/C(=C\C(=O)OC(C)CCCCCS(N)(=O)=O)CC1OCC(CC2OC2C(C)C(C)O)C(O)C1O` (centres unmarked) [Example 5, 7-Sulphamoylhept-2-yl monate A], the MIC is reported as over 100 µg/mL.

The compounds below were run on Bord bronchiseptica B09 (assay: MIC veterinary bacteria (Table 2), serial dilution in agar). Details: diagnostic sensitivity test agar.
Type: cell-based
Compound `C/C(=C\C(=O)OC(C)CCCCCS(N)(=O)=O)CC1OCC(CC2OC2C(C)C(C)O)C(O)C1O` (centres unmarked) [Example 5, 7-Sulphamoylhept-2-yl monate A] has an MIC of 10 µg/mL (≈ 19.2 µM).

What follows are compounds tested on Ps. aeruginosa 10662 (assay: MIC human bacteria (Table 1), serial dilution in nutrient agar). Details: Pseudomonas aeruginosa, nutrient agar with 5% chocolated horse blood.
Type: cell-based
`C/C(=C\C(=O)OC(C)CCCCCS(N)(=O)=O)CC1OCC(CC2OC2C(C)C(C)O)C(O)C1O` (centres unmarked) [Example 5, 7-Sulphamoylhept-2-yl monate A] gave an MIC of over 100 µg/mL.
